Data as given in PMC9005681, “Use of AD Informer Set compounds to explore validity of novel targets in Alzheimer's disease pathology” (Alzheimer's & Dementia : Translational Research & Clinical …, 2022).

What was measured:
[1] = target: T1, cloned human or rodent CNS receptors, channels, and transporters (PDSP panel) (Homo sapiens, UniProt P11229); experiment: PDSP GPCR panel primary binding assays at 10 μM; conditions: primary assay
T1 construct: expressed in transfected cells
T1 sequence (P11229 1-460): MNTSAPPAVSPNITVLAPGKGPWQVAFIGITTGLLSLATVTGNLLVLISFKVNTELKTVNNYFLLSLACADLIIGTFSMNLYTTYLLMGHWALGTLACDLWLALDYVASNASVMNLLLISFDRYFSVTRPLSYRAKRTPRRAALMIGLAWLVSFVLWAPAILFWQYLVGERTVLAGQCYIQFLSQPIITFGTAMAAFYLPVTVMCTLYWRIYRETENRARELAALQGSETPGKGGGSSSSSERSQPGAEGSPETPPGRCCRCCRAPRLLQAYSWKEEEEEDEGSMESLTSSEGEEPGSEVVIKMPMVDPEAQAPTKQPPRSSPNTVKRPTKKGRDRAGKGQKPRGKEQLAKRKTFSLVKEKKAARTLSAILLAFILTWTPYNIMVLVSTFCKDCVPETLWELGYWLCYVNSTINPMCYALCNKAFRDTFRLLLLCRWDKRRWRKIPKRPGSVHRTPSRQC
Protocol: (§1) GPCR panel: Screening against the receptors within the PDSP panel offers an assessment of off-target pharmacological activity at cloned human or rodent CNS receptors, channels, and transporters that could confound CNS-related phenotypes. A total of 46–47 primary binding assays were run in quadruplicate on these compounds at 10 μM, with follow-up secondary binding assays in 11-point dose-response in triplicate for select compounds versus select receptors. Secondary binding assays were executed for all receptors where test compound displaced an average of >50% of radio-labeled standard ligand. As an exception, no secondary assays were carried out for H3, PBR, or GABAA. […]

[2] = target: T2, cloned human or rodent CNS receptors, channels, and transporters (PDSP panel) (Homo sapiens, UniProt P21917); experiment: PDSP GPCR panel primary binding assays at 10 μM; conditions: primary assay
T2 construct: expressed in transfected cells
T2 sequence (P21917 1-419): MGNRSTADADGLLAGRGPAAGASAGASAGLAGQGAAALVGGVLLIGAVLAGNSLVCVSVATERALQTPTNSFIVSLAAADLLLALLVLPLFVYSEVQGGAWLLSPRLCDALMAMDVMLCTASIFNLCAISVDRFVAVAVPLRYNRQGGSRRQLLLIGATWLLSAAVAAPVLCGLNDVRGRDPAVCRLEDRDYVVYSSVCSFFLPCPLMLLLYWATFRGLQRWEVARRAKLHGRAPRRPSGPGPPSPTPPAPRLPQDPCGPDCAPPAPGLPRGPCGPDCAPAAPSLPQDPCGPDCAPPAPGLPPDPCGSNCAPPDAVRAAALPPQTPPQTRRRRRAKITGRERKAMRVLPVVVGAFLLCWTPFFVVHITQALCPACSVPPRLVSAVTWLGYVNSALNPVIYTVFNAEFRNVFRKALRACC
Protocol: as §1

[3] = target: T3, cloned human or rodent CNS receptors, channels, and transporters (PDSP panel) (Homo sapiens, UniProt P25021); experiment: PDSP GPCR panel primary binding assays at 10 μM; conditions: primary assay
T3 construct: expressed in transfected cells
T3 sequence (P25021 whole entry): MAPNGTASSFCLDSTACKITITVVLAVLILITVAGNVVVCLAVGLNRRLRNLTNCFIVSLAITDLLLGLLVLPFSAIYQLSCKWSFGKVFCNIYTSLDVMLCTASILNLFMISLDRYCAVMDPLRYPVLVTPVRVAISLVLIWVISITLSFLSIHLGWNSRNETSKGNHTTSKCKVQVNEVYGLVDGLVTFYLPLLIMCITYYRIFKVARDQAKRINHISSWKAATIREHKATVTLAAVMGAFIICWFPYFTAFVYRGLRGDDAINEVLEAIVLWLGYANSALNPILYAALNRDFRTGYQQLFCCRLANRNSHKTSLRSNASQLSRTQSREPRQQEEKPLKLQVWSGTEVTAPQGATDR
Protocol: as §1

[4] = target: T4, cloned human or rodent CNS receptors, channels, and transporters (PDSP panel) (Homo sapiens, UniProt P28223); experiment: PDSP GPCR panel primary binding assays at 10 μM; conditions: primary assay
T4 construct: expressed in transfected cells
T4 sequence (P28223 whole entry): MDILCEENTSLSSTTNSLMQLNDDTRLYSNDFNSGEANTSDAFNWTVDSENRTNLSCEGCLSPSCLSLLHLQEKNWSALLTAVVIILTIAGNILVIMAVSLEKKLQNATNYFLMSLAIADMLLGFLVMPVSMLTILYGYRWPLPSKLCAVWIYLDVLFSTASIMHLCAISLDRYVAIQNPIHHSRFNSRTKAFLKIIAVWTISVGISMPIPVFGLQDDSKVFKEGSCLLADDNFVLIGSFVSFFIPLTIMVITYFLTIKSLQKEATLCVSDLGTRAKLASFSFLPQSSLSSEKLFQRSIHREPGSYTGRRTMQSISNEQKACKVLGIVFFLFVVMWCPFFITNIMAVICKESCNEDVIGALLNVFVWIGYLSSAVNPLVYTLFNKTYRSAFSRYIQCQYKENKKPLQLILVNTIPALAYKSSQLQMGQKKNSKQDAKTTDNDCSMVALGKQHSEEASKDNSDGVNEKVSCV
Protocol: as §1

[5] = target: T5, cloned human or rodent CNS receptors, channels, and transporters (PDSP panel) (Homo sapiens, UniProt P34969); experiment: PDSP GPCR panel primary binding assays at 10 μM; conditions: primary assay
T5 construct: expressed in transfected cells
T5 sequence (P34969 whole entry): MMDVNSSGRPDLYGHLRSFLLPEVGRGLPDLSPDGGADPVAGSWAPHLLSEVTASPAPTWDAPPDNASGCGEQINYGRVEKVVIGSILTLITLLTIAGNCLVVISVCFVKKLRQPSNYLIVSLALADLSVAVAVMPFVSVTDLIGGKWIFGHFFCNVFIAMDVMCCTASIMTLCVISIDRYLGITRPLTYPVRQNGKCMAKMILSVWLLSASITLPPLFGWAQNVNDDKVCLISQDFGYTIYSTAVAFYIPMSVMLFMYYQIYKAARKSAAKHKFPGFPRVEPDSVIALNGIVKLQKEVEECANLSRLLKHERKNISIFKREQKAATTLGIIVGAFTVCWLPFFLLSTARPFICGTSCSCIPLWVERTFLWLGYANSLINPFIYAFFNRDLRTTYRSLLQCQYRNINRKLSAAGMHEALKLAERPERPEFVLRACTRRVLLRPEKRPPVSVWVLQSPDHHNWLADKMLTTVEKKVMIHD
Protocol: as §1

[6] = target: T6, cloned human or rodent CNS receptors, channels, and transporters (PDSP panel) (Homo sapiens, UniProt P41145); experiment: PDSP GPCR panel primary binding assays at 10 μM; conditions: primary assay
T6 construct: expressed in transfected cells
T6 sequence (P41145 whole entry): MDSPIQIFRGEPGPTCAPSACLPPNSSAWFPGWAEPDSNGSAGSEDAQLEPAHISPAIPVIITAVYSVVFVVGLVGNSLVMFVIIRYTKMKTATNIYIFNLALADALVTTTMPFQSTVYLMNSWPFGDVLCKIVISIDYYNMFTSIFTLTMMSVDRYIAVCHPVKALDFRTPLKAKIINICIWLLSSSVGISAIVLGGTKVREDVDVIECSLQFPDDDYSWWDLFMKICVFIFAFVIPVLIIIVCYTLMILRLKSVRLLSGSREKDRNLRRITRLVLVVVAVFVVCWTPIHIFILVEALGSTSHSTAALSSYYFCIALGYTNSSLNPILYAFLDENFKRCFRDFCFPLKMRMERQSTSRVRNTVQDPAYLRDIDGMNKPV
Protocol: as §1

[7] = target: T7, cloned human or rodent CNS receptors, channels, and transporters (PDSP panel) (Homo sapiens, UniProt P46098); experiment: PDSP GPCR panel primary binding assays at 10 μM; conditions: primary assay
T7 construct: expressed in transfected cells
T7 sequence (P46098 24-478): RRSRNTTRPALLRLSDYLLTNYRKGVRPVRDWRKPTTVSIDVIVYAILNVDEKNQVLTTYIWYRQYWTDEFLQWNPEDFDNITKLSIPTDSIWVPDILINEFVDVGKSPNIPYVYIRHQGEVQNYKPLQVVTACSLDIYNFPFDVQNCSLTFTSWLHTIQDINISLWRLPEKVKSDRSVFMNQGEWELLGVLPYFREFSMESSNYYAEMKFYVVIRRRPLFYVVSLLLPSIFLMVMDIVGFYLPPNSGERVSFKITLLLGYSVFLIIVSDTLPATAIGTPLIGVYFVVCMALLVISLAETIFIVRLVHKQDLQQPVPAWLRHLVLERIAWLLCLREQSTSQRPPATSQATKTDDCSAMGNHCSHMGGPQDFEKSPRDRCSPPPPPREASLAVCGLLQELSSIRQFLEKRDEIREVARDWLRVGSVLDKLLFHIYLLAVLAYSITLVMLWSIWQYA
Protocol: as §1

[8] = tested on: cellular system; set-up: method as in column References for potency and dosing (the 5th table c13); conditions: published data; References for potency and dosing; cited from earlier work

Question: Which “Inhibition 1” value ([1]; Receptor M1, 10 μM) does the source give for `c1cn2cc(-c3ccc4cn[nH]c4c3)nc(Nc3ccc(N4CCOCC4)cc3)c2n1` [UNC10302678A, Entospletinib (GS-9973)] here?
Answer: 19.66%

Question: What about the “Inhibition 2” value ([1]; Receptor M1, 10 μM) of the same molecule?
Answer: -3.67%

Question: And the “Inhibition 3” value ([1]; Receptor M1, 10 μM)?
Answer: -8.18%

Question: What about the “Inhibition 4” value ([1]; Receptor M1, 10 μM) of the same molecule?
Answer: 2.73%

Question: And the Mean % ([1]; Receptor M1, 10 μM, mean of Inhibition 1-4)?
Answer: 2.64%

Question: And the “Inhibition 1” value ([2]; Receptor D4, 10 μM)?
Answer: 5.16%

Question: And the “Inhibition 2” value ([2]; Receptor D4, 10 μM)?
Answer: 7.36%

Question: What about the “Inhibition 3” value ([2]; Receptor D4, 10 μM) of the same molecule?
Answer: -2.39%

Question: What about the “Inhibition 4” value ([2]; Receptor D4, 10 μM) of the same molecule?
Answer: 2.39%

Question: What about the Mean % ([2]; Receptor D4, 10 μM, mean of Inhibition 1-4) of the same molecule?
Answer: 3.13%

Question: And the “Inhibition 1” value ([3]; Receptor H2, 10 μM)?
Answer: 34.86%

Question: And the “Inhibition 2” value ([3]; Receptor H2, 10 μM)?
Answer: 31.07%

Question: What about the “Inhibition 3” value ([3]; Receptor H2, 10 μM) of the same molecule?
Answer: 0.58%

Question: What about the “Inhibition 4” value ([3]; Receptor H2, 10 μM) of the same molecule?
Answer: -19.99%

Question: And the Mean % ([3]; Receptor H2, 10 μM, mean of Inhibition 1-4)?
Answer: 11.63%

Question: And the “Inhibition 1” value ([4]; Receptor 5-HT2A, 10 μM)?
Answer: -1.01%

Question: What about the “Inhibition 2” value ([4]; Receptor 5-HT2A, 10 μM) of the same molecule?
Answer: -14.98%

Question: And the “Inhibition 3” value ([4]; Receptor 5-HT2A, 10 μM)?
Answer: -19.59%

Question: And the “Inhibition 4” value ([4]; Receptor 5-HT2A, 10 μM)?
Answer: -10.22%

Question: What about the Mean % ([4]; Receptor 5-HT2A, 10 μM, mean of Inhibition 1-4) of the same molecule?
Answer: -11.45%

Question: What about the “Inhibition 1” value ([5]; Receptor 5-HT7A, 10 μM) of the same molecule?
Answer: 7.05%

Question: And the “Inhibition 2” value ([5]; Receptor 5-HT7A, 10 μM)?
Answer: 11.23%

Question: And the “Inhibition 3” value ([5]; Receptor 5-HT7A, 10 μM)?
Answer: 9.37%

Question: What about the “Inhibition 4” value ([5]; Receptor 5-HT7A, 10 μM) of the same molecule?
Answer: 35.72%

Question: What about the Mean % ([5]; Receptor 5-HT7A, 10 μM, mean of Inhibition 1-4) of the same molecule?
Answer: 15.84%

Question: And the “Inhibition 1” value ([6]; Receptor KOR, 10 μM)?
Answer: -28.1%

Question: And the “Inhibition 2” value ([6]; Receptor KOR, 10 μM)?
Answer: -33.36%

Question: And the “Inhibition 3” value ([6]; Receptor KOR, 10 μM)?
Answer: -49.37%

Question: What about the “Inhibition 4” value ([6]; Receptor KOR, 10 μM) of the same molecule?
Answer: -45.23%

Question: And the Mean % ([6]; Receptor KOR, 10 μM, mean of Inhibition 1-4)?
Answer: -39.02%

Question: What about the “Inhibition 1” value ([7]; Receptor 5-HT3, 10 μM) of the same molecule?
Answer: 20.59%

Question: And the “Inhibition 2” value ([7]; Receptor 5-HT3, 10 μM)?
Answer: 12.98%

Question: What about the “Inhibition 3” value ([7]; Receptor 5-HT3, 10 μM) of the same molecule?
Answer: 21.06%

Question: What about the “Inhibition 4” value ([7]; Receptor 5-HT3, 10 μM) of the same molecule?
Answer: 14.69%

Question: What about the Mean % ([7]; Receptor 5-HT3, 10 μM, mean of Inhibition 1-4) of the same molecule?
Answer: 17.33%

Question: And the “Reported as cell active (<10 μM)” value [8]?
Answer: Y (Published data supports that the compound is active in a cellular system when dosed at 10 μM (Y/N))

Question: For `CNc1nc(C)nc(N[C@H]2CCC[C@@H](C(=O)NCc3ccc(C#N)cc3C(F)(F)F)C2)n1` [UNC10302679A, GSK2256294A], which Mean % ([1]; M1, mean inhibition) is on record?
Answer: -5.74%

Question: What about the “Inhibition 1” value ([1]; M1, replicate 1) of the same molecule?
Answer: 6.11%

Question: And the “Inhibition 2” value ([1]; M1, replicate 2)?
Answer: -4.99%

Question: What about the “Inhibition 3” value ([1]; M1, replicate 3) of the same molecule?
Answer: -11.01%

Question: What about the “Inhibition 4” value ([1]; M1, replicate 4) of the same molecule?
Answer: -13.08%

Question: What about the Mean % ([2]; D4, mean inhibition) of the same molecule?
Answer: 2.7%

Question: And the “Inhibition 1” value ([2]; D4, replicate 1)?
Answer: 2.1%

Question: What about the “Inhibition 2” value ([2]; D4, replicate 2) of the same molecule?
Answer: -2.96%

Question: What about the “Inhibition 3” value ([2]; D4, replicate 3) of the same molecule?
Answer: 3.54%

Question: What about the “Inhibition 4” value ([2]; D4, replicate 4) of the same molecule?
Answer: 8.13%

Question: What about the Mean % ([3]; H2, mean inhibition) of the same molecule?
Answer: -21%

Question: And the “Inhibition 1” value ([3]; H2, replicate 1)?
Answer: -8.72%

Question: What about the “Inhibition 2” value ([3]; H2, replicate 2) of the same molecule?
Answer: -33.49%

Question: And the “Inhibition 3” value ([3]; H2, replicate 3)?
Answer: -19.51%

Question: And the “Inhibition 4” value ([3]; H2, replicate 4)?
Answer: -22.27%

Question: And the Mean % ([4]; 5-HT2A, mean inhibition)?
Answer: -5.29%

Question: What about the “Inhibition 1” value ([4]; 5-HT2A, replicate 1) of the same molecule?
Answer: 5.24%

Question: And the “Inhibition 2” value ([4]; 5-HT2A, replicate 2)?
Answer: -8.74%

Question: What about the “Inhibition 3” value ([4]; 5-HT2A, replicate 3) of the same molecule?
Answer: -13.01%

Question: What about the “Inhibition 4” value ([4]; 5-HT2A, replicate 4) of the same molecule?
Answer: -4.63%

Question: What about the Mean % ([5]; 5-HT7A, mean inhibition) of the same molecule?
Answer: 35.21%

Question: And the “Inhibition 1” value ([5]; 5-HT7A, replicate 1)?
Answer: 10.61%

Question: And the “Inhibition 2” value ([5]; 5-HT7A, replicate 2)?
Answer: 51.06%

Question: And the “Inhibition 3” value ([5]; 5-HT7A, replicate 3)?
Answer: 19.91%

Question: And the “Inhibition 4” value ([5]; 5-HT7A, replicate 4)?
Answer: 59.27%

Question: And the Mean % ([6]; KOR, mean inhibition)?
Answer: -10.86%

Question: And the “Inhibition 1” value ([6]; KOR, replicate 1)?
Answer: -18.36%

Question: And the “Inhibition 2” value ([6]; KOR, replicate 2)?
Answer: -17.69%

Question: And the “Inhibition 3” value ([6]; KOR, replicate 3)?
Answer: 0.34%

Question: What about the “Inhibition 4” value ([6]; KOR, replicate 4) of the same molecule?
Answer: -7.72%

Question: What about the Mean % ([7]; 5-HT3, mean inhibition) of the same molecule?
Answer: 8.2%

Question: And the “Inhibition 1” value ([7]; 5-HT3, replicate 1)?
Answer: 4.04%

Question: And the “Inhibition 2” value ([7]; 5-HT3, replicate 2)?
Answer: 9.4%

Question: What about the “Inhibition 3” value ([7]; 5-HT3, replicate 3) of the same molecule?
Answer: -1.71%

Question: What about the “Inhibition 4” value ([7]; 5-HT3, replicate 4) of the same molecule?
Answer: 21.06%

Question: And the “Reported as cell active (<10 μM)” value [8]?
Answer: Y (Published data supports that the compound is active in a cellular system when dosed at 10 μM (Y/N))
